Experimental data: article PMC5515969, “Effects of 31 FDA approved small-molecule kinase inhibitors on isolated rat liver mitochondria” (Archives of Toxicology, 2016)
Where two headings read alike, the source gives them in different places.

What was measured:
RCC IV = RCC IV activity in submitochondrial particles; format: biochemical, rat; parameters: key to RCC IV at 50XCmax / RCC IV at 100XCmax: activity relative to DMSO-treated controls (control set as 1 = 100%)
How it was run: (§1)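 First, submitochondrial particles (1 mg/ml) are incubated with inhibitor for 15 min. Next, complex activities are followed spectrophotometrically, with RCC I taken as the difference between buffers lacking and containing rotenone. Finally, activities are expressed relative to DMSO controls set at 1.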

[1] = system: isolated rat liver mitochondria; details: positive control alamethicin treated samples
[2] = cited from earlier work
[3] = system: isolated rat liver mitochondria; assay: Mitochondrial inner membrane potential (MMP), Rhodamine 123; format: biochemical; details: difference in signal between KI and DMSO treated samples at the end of experiments
Excerpt: Fig. 3 KI effects on mitochondrial inner membrane potential (MMP). […] In a, c, data are means and standard derivations from three separate experiments. *p < 0.05 as compared to DMSO-treated samples at the end of experiments. In b, data are means of two independent experiments

[4] = system: isolated rat liver mitochondria; assay: Mitochondrial ROS production (CM-H2DCFDA); details: DMSO treated samples set as 1
[5] = system: isolated rat liver mitochondria; assay: Mitochondrial oxygen consumption (glutamate/malate or succinate driven, state 4 and state 3); format: biochemical; details: DMSO treated samples set as 1; as to State 3 respiration driven by succinate at 10XCmax: key: 0 indicates that the drug had no effects (negative); as to State 3 respiration driven by succinate at 1XCmax: key: 0 indicates that the drug had no effects (negative)
How it was run: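 Rat liver mitochondria (1 mg/ml protein) exposed 5 min to kinase inhibitors in 0.1% DMSO, then O2 consumption measured by Clark-type electrode with glutamate/malate or succinate (state 4), ADP added after 3 min (state 3). Rates normalized to 0.1% DMSO controls set to 1.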

RCC III = RCC III activity in submitochondrial particles; format: biochemical, rat; parameters: key to RCC III at 100XCmax: activity relative to DMSO-treated controls (control set as 1 = 100%)
How it was run: as §1

RCC V = RCC V activity in submitochondrial particles; format: biochemical, rat; as to RCC V at 5XCmax: key: 0 indicates that the drug had no effects (negative)
How it was run: as §1

RCC II = molecular target: T1, RCC II (Rattus norvegicus, UniProt P21913+Q641Z9+Q6PCT8+Q920L2); assay: RCC II activity in submitochondrial particles; format: biochemical; parameters: key: activity relative to DMSO-treated controls (control set as 1 = 100%); details: relative to DMSO treated samples
T1 construct: Submitochondrial particles were prepared by subjecting the intact mitochondria to three successive freeze–thaw cycles; from tissue; host or cells: rat liver mitochondria, used as submitochondrial particles
T1 sequence (Q920L2 35-656): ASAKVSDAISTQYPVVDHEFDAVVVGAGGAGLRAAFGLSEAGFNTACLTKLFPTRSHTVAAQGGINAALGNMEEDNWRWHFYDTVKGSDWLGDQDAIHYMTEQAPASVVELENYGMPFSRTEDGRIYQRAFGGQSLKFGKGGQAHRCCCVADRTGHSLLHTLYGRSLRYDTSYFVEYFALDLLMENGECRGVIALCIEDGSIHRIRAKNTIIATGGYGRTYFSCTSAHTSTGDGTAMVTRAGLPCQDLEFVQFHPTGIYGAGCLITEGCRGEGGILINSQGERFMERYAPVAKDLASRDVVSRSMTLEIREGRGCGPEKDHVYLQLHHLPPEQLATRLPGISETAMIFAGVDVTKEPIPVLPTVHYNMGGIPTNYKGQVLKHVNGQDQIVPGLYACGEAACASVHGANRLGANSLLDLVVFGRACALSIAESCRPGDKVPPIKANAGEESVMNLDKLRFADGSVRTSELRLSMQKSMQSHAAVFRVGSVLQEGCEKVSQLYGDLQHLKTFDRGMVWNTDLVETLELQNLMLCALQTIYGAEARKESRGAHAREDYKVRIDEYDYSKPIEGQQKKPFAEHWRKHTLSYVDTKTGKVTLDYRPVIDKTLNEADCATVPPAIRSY
T1 sequence (P21913 31-282): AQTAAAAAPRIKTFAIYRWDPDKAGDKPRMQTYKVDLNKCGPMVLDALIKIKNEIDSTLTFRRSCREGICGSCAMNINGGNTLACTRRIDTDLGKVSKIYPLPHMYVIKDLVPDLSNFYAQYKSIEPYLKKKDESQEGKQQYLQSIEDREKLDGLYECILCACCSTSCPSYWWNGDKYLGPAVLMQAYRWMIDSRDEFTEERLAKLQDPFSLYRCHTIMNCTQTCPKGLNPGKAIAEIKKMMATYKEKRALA
T1 sequence (Q641Z9 1-169): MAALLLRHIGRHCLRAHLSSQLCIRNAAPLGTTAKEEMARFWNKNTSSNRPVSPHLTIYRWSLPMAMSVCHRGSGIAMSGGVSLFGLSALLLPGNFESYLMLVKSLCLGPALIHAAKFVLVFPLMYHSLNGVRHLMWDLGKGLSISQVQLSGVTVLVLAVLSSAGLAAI
T1 sequence (Q6PCT8 57-159): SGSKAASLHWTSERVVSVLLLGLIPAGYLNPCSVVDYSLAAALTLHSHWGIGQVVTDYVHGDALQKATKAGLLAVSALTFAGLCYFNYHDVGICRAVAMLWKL
How it was run: as §1

[6] = 100-fold Cmax, 15 min, DMSO-treated = 100

## COc1cc(Nc2c(C#N)cnc3cc(OCCCN4CCN(C)CC4)c(OC)cc23)c(Cl)cc1Cl [Bosutinib]
RCC IV; 50XCmax, relative to DMSO treated samples, in %
  RCC IV at 50XCmax: 0
RCC IV; [6]
  RCC activity IV: 101.25 ± 2.26 % of control
[1]; 1XCmax
  Cytochrome c release 1XCmax: 0
[1]; 2.5XCmax
  Cytochrome c release 2.5XCmax: 0
[1]; 5XCmax
  Cytochrome c release 5XCmax: 0
[1]; 10XCmax
  Cytochrome c release 10XCmax: 0
[1]; 20XCmax
  Cytochrome c release 20XCmax: 0
[1]; 30XCmax
  Cytochrome c release 30XCmax: 0
[1]; 50XCmax
  Cytochrome c release 50XCmax: 0
[1]; 100XCmax
  Cytochrome c release 100XCmax: 0
[2]; 1 = DILI positive, 0 = negative, ref product labeling
  DILI potential (based on labeling): 1
[2]; BBW: black box warning, W&P: Warnings and Precautions, ref product labeling
  Labeling for DILI: W&P: ALT↑
[2]; W&P warnings and precautions, BBW black box warnings, ref FDA product labeling
  labeling for DILI: W&P: ALT↑/monitoring
[2]; ref FDA product labeling
  DILI potential (based on labeling): 1
[3]; 1XCmax
  MMP measured by Rhodamine 123 at 1XCmax: 0
[3]; 2.5XCmax
  MMP measured by Rhodamine 123 at 2.5XCmax: 0
[3]; 5XCmax
  MMP measured by Rhodamine 123 at 5XCmax: 0
[3]; 10XCmax
  MMP measured by Rhodamine 123 at 10XCmax: 0
[3]; 20XCmax
  MMP measured by Rhodamine 123 at 20XCmax: 0
[3]; 30XCmax
  MMP measured by Rhodamine 123 at 30XCmax: 0
[3]; 50XCmax
  MMP measured by Rhodamine 123 at 50XCmax: 0
[3]; 100XCmax
  MMP measured by Rhodamine 123 at 100XCmax: 0
[4]; 1XCmax
  ROS measured by CM-H2DCFDA at 1XCmax: 0
[4]; 2.5XCmax
  ROS measured by CM-H2DCFDA at 2.5XCmax: 0
[4]; 5XCmax
  ROS measured by CM-H2DCFDA at 5XCmax: 0
[4]; 10XCmax
  ROS measured by CM-H2DCFDA at 10XCmax: 0
[4]; 20XCmax
  ROS measured by CM-H2DCFDA at 20XCmax: 0
[4]; 30XCmax
  ROS measured by CM-H2DCFDA at 30XCmax: 0
[4]; 50XCmax
  ROS measured by CM-H2DCFDA at 50XCmax: 0
[4]; 100XCmax
  ROS measured by CM-H2DCFDA at 100XCmax: 0
[5]; 1XCmax
  State 3 respiration driven by glutamate/malate at 1XCmax: 0
  State 3 respiration driven by succinate at 1XCmax: 0
  State 4 respiration driven by glutamate/malate at 1XCmax: 0
  State 4 respiration driven by succinate at 1XCmax: 0
[5]; 2.5XCmax
  State 3 respiration driven by glutamate/malate at 2.5XCmax: 0
  State 3 respiration driven by succinate at 2.5XCmax: 0
  State 4 respiration driven by glutamate/malate at 2.5XCmax: 0
  State 4 respiration driven by succinate at 2.5XCmax: 0
[5]; 5XCmax
  State 3 respiration driven by glutamate/malate at 5XCmax: 0
  State 3 respiration driven by succinate at 5XCmax: 0
  State 4 respiration driven by glutamate/malate at 5XCmax: 0
  State 4 respiration driven by succinate at 5XCmax: 0
[5]; 10XCmax
  State 3 respiration driven by glutamate/malate at 10XCmax: 0
  State 3 respiration driven by succinate at 10XCmax: 0
  State 4 respiration driven by glutamate/malate at 10XCmax: 0
  State 4 respiration driven by succinate at 10XCmax: 0
[5]; 20XCmax
  State 3 respiration driven by glutamate/malate at 20XCmax: 0
  State 3 respiration driven by succinate at 20XCmax: 0
  State 4 respiration driven by glutamate/malate at 20XCmax: 0
  State 4 respiration driven by succinate at 20XCmax: 0
[5]; 30XCmax
  State 3 respiration driven by glutamate/malate at 30XCmax: 0
  State 3 respiration driven by succinate at 30XCmax: 0
  State 4 respiration driven by glutamate/malate at 30XCmax: 0
  State 4 respiration driven by succinate at 30XCmax: 0
[5]; 50XCmax
  State 3 respiration driven by glutamate/malate at 50XCmax: 0
  State 3 respiration driven by succinate at 50XCmax: 0
  State 4 respiration driven by glutamate/malate at 50XCmax: 0
  State 4 respiration driven by succinate at 50XCmax: 0
[5]; 100XCmax
  State 3 respiration driven by glutamate/malate at 100XCmax: 0
  State 3 respiration driven by succinate at 100XCmax: 0
  State 4 respiration driven by glutamate/malate at 100XCmax: 0
  State 4 respiration driven by succinate at 100XCmax: 0
RCC III; [6]
  RCC activity III: 101.81 ± 4.43 % of control
RCC III; 100XCmax, relative to DMSO treated samples
  RCC III at 100XCmax: 0
RCC V; 5XCmax, relative to DMSO treated samples
  RCC V at 5XCmax: 0
RCC V; 50XCmax, relative to DMSO treated samples
  RCC V at 50XCmax: 0
RCC V; [6]
  RCC activity V: 91.53 ± 6.49 % of control
RCC II; 1.0XCmax
  RCC II at 1.0XCmax: 0
RCC II; 2.5XCmax
  RCC II at 2.5XCmax: 0
RCC II; 5XCmax
  RCC II at 5XCmax: 0
RCC II; 10XCmax
  RCC II at 10XCmax: 0
RCC II; 20XCmax
  RCC II at 20XCmax: 0
RCC II; 30XCmax
  RCC II at 30XCmax: 0
RCC II; 50XCmax
  RCC II at 50XCmax: 0
RCC II; 100XCmax
  RCC II at 100XCmax: 0
